# Test results: publication PMC12392461, “Beyond Estrogenicity: A Comparative Assessment of Bisphenol A and Its Alternatives in In Vitro Assays Questions Safety of Replacements” (Environmental Science & Technology, 2025)
# Where two headings read alike, the source gives them in different places.
# Legend:
# [1] = test system: Mitochondrial Membrane Potential; assay: cells
# [2] = Acidity constant (pKa) measurement, Sirius T3 UV-metric, and speciation at pH 7.4; conditions: for αneutral % (fraction of neutral species): pH 7.4; for pKa: pKa (Acid)
# [3] = biological target: T1, Peroxisome proliferator-activated receptor γ (Homo sapiens, UniProt P37231); assay: cell-based; conditions: for EC10, linear transformed / EC10, linear / logEC10: PPARγ bioassay; for EC10, linear: linear model; for logEC10: log-logistic model; for SR-ScorePPARγ: SR-Score, sigma k=1, x=5; for EC10, PPARγ: effect; for log(1/EC10) PPARγ: input of the ToxPi score, values up to 1.00; for Emax: read-out: Emax%PPARγ
# T1 sequence (P37231 238-505 limits assumed): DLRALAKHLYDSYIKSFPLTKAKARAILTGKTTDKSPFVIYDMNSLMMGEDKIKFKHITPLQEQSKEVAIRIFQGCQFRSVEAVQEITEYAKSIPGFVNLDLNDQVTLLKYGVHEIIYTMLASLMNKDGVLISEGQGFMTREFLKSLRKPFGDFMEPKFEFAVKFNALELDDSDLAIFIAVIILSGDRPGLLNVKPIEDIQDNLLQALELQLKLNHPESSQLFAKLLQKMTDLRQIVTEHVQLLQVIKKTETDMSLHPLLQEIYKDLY
# Procedure, shortened: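 ERα-UAS-bla GripTite and PPARγ-UAS-bla reporter cells were seeded in assay medium with 2% charcoal-stripped FBS and held 24 h at 37 °C before dosing. Viability came from IncuCyte confluency before and after exposure. EC10 used only concentrations below IC10; Emax% is the log-logistic curve maximum relative to the reference chemical.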
compound,measurement,setting,value
"Cc1ccc(S(=O)(=O)NC(=O)Nc2cccc(OS(=O)(=O)c3ccc(C)cc3)c2)cc1 [Pergafast, N-(p-toluenesulfonyl)-N'-(3-(p-toluenesulfonyloxy)phenyl)urea]","EC10, linear","[1]; MMP bioassay, dosing range all, linear model",no effect
same,logEC10,"[1]; MMP bioassay, dosing range all, log-logistic model",no effect
same,log(1/EC10) MMP,"[1]; input of the ToxPi score, values up to 1.00",0.92
same,Negative form (pH = 7.40),[2]; from experimental pKa,100%
same,Neutral form (pH = 7.40),[2]; from experimental pKa,0.089%
same,αneutral % (fraction of neutral species),[2]; from experimental pKa,0.089%
same,pKa,"[2]; phosphate buffer with […] KCl, Sirius T3 titrator, experimental, this study",4.35
same,"EC10, PPARγ (M)",[3]; 10% of maximum effect of rosiglitazone,6.71 × 10^–7 M
same,"EC10, linear transformed",[3]; dosing range all,6.71E-07
same,"EC10, linear",[3]; dosing range all,9.42E-07
same,logEC10,[3]; dosing range all,-6.17
same,SR-ScorePPARγ,[3],1.00
same,Specificity ratio (SRbaseline) SRPPARγ,[3]; against baseline cytotoxicity,77.74
same,Specificity ratio (SRcytotoxicity) SRPPARγ,[3]; against experimental cytotoxicity,28.39
same,"EC10, PPARγ",[3],0.671 µM
same,log(1/EC10) PPARγ,[3],0.87
same,Emax,[3],16%
"CC(C)(c1cc(Cl)c(O)c(Cl)c1)c1cc(Cl)c(O)c(Cl)c1 [TCBPA, 2,2',6,6'-Tetrachlorobisphenol A]",EC10,"[1]; Arec32, read-out: EC10, MMP",1.48e-05 M
same,EC10,"[1]; Arec32, read-out: EC10, MMP (M)",1.48e-05 M
same,EC10,"[1]; Arec32, read-out: EC10, linear",1.15e-05 M
same,EC10,"[1]; Arec32, read-out: EC10, linear transformed",1.6e-05 M
same,EC10,"[1]; Arec32, read-out: logEC10",1.48e-05 M
same,pKa (Acid),[2],8.13
same,Double negative form (pH = 7.40),[2]; from experimental pKa,11%
same,Negative form (pH = 7.40),[2]; from experimental pKa,60%
same,Neutral form (pH = 7.40),[2]; from experimental pKa,29%
same,αneutral % (fraction of neutral species),[2]; from experimental pKa,29%
same,pKa,[2],7.08
same,"EC10, linear transformed",[3]; dosing range high,4.16E-08
same,"EC10, linear",[3]; dosing range high,7.40E-08
same,logEC10,[3]; dosing range high,-7.38
same,"EC10, linear transformed",[3]; dosing range low,1.55E-07
same,"EC10, linear",[3]; dosing range low,1.92E-07
same,logEC10,[3]; dosing range low,-6.81
same,SR-ScorePPARγ,[3],1.00
same,"EC10, PPARγ",[3],0.155 µM
same,log(1/EC10) PPARγ,[3],0.96
same,Emax,[3],32%
